IC50 data for 29 compounds are collected here from patent US8895535B2, “Pyrrolidinones as MetAP-2 inhibitors” (Merck Patent GmbH, priority 2010, dated 2014).

Molecules are shown by their SMILES.

In the experiment the target is MetAP-2 (Homo sapiens, UniProt P50579). Nature of the experiment: MetAP-2 activity measurement (coupled enzymatic reactions, substrate Met-Arg-Ser). The experiment is classed as biochemical. Conditions: Inhibition of MetAP-2; read-out: IC50 enzyme. Here is the method: MetAP-2 Activity Measurement
MetAP-2, sequence (P50579 whole entry, species assumed): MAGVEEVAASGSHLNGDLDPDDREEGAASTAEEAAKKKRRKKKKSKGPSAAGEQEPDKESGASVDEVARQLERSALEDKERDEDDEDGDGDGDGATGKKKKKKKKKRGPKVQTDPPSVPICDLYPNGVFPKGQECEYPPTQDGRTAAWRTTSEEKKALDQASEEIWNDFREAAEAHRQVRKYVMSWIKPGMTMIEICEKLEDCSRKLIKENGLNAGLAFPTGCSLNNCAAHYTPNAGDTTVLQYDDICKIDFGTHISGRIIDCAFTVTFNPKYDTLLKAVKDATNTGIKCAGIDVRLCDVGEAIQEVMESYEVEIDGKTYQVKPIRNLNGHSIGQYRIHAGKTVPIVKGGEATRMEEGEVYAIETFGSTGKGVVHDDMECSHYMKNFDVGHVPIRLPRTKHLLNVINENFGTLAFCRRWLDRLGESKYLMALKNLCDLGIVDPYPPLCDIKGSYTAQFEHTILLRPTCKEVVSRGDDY
The MetAP-2 activity is determined by coupling enzymatic reactions. The tripeptide Met-Arg-Ser (MAS) is employed as substrate. The methionine liberated is firstly converted into Metox and H2O2 by L-aminooxidase (AAO).
MetAP-2 activity can be recorded continuously as kinetics. The reaction scheme illustrates that one mol of dianisidineox is formed per mol of methionene. The MetAP-2 enzyme activity can therefore be calculated directly as Δ absorption per time unit. […] of the MetAP-2 activity (mol of Met/time unit) is possible with the aid of the dianisidineox extinction coefficient.
The change in extinction per time unit is depicted graphically and a slope calculation is carried out in the visually linear region of the reaction.
What is called IC50 is the point on the concentration scale where inhibition reaches its midpoint. On to `CS(=O)(=O)N1CCc2cc(N3CCC(O)(C(=O)NCc4cc(F)cc(Cl)c4)C3=O)ccc21` (centres unmarked) [A253], for which the IC50 was 0.01 to 1 µM. In the case of `CS(=O)(=O)c1ccc(N2CC[C@](O)(C(=O)NCc3cc(F)cc(Cl)c3)C2=O)cc1` [A260] it was 0.01 to 1 µM; in that of `CC(=O)N1CCc2cc(N3CCC(O)(C(=O)NCCc4cc(F)cc(Cl)c4)C3=O)ccc21` (centres unmarked) [A261], 0.01 to 1 µM. In the case of `Cc1nnc(-c2ccc(N3CC[C@](O)(C(=O)NCc4cc(F)cc(Cl)c4)C3=O)cc2)o1` [A267] it was 0.01 to 1 µM. In the case of `O=C(NCc1cc(F)cc(Cl)c1)C1(O)CCN(c2ccc3c(cnn3C3CCCCO3)c2)C1=O` (centres unmarked) [A279] it was 0.01 to 1 µM; in that of `O=CN1CCc2cc(N3CC[C@](O)(C(=O)NCc4cc(F)cc(Cl)c4)C3=O)ccc21` [A282], 0.01 to 1 µM; in that of `O=CN1CCc2cc(N3CC[C@@](O)(C(=O)NCc4cc(F)cc(Cl)c4)C3=O)ccc21` [A285], over 10 µM.

For `COC(=O)N1CCc2cc(N3CCC(O)(C(=O)NCc4cc(F)cc(Cl)c4)C3=O)ccc21` (centres unmarked) [A286], the IC50 fell in the range of 0.01 to 1 µM.

With `CNC(=O)Cn1ccc2cc(N3CC[C@](O)(C(=O)NCc4cc(F)cc(Cl)c4)C3=O)ccc21` [A287], the IC50 was in the range of 0.01 to 1 µM. In the case of `C#CC(NC(=O)[C@@]1(O)CCN(c2ccccc2)C1=O)c1ccccc1` (some centres unmarked) [A288] it was 0.01 to 1 µM.

Take `CCNC(=O)N1CCc2cc(N3CC[C@](O)(C(=O)NCc4cc(F)cc(Cl)c4)C3=O)ccc21` [A290]: the IC50 was in the range of 0.01 to 1 µM. In the case of `O=C(NCCCN1CCOCC1)[C@@]1(O)CCN(c2ccccc2)C1=O` [A292] it was over 10 µM; in that of `O=C(NCc1ccc2c(c1)OCO2)[C@@]1(O)CCN(c2ccccc2)C1=O` [A295], 1 to 10 µM. Take `CCCC(C)NC(=O)[C@@]1(O)CCN(c2ccccc2)C1=O` (some centres unmarked) [A298]: the IC50 was in the range of 1 to 10 µM.

In the case of `O=C(N1CCOCC1)[C@@]1(O)CCN(c2ccccc2)C1=O` [A300], the IC50 was over 10 µM. In the case of `CC(C)OCCCNC(=O)[C@@]1(O)CCN(c2ccccc2)C1=O` [A301] it was 1 to 10 µM. In the case of `O=C(NCc1ccccc1C(F)(F)F)[C@@]1(O)CCN(c2ccccc2)C1=O` [A302] it was 0.01 to 1 µM; in that of `CCN(Cc1ccccc1)C(=O)[C@@]1(O)CCN(c2ccccc2)C1=O` [A303], over 10 µM. In the case of `CC(C)CNC(=O)[C@@]1(O)CCN(c2ccccc2)C1=O` [A305] it was 1 to 10 µM; in that of `O=C(N1CCCCC1)[C@@]1(O)CCN(c2ccccc2)C1=O` [A308], over 10 µM; in that of `CCCCNC(=O)[C@@]1(O)CCN(c2ccccc2)C1=O` [A310], 0.01 to 1 µM. For the compound `CC1CCN(C(=O)[C@@]2(O)CCN(c3ccccc3)C2=O)CC1` [A316], the IC50 lay in the range of 1 to 10 µM. In the case of `O=C(NC1COc2ccccc2C1)[C@@]1(O)CCN(c2ccccc2)C1=O` (some centres unmarked) [A320] it was 0.01 to 1 µM. In the case of `CN(Cc1ccsc1)C(=O)[C@@]1(O)CCN(c2ccccc2)C1=O` [A321] it was over 10 µM; in that of `CN(C(=O)[C@@]1(O)CCN(c2ccccc2)C1=O)C1CCCC1` [A323], 1 to 10 µM. In the case of `O=C(NCC1CCCCC1)[C@@]1(O)CCN(c2ccccc2)C1=O` [A324] it was 0.01 to 1 µM.

As for `CC(C)C(C)NC(=O)[C@@]1(O)CCN(c2ccccc2)C1=O` (some centres unmarked) [A326], the IC50 fell in the range of 1 to 10 µM.

As for `CCCOCCNC(=O)[C@@]1(O)CCN(c2ccccc2)C1=O` [A329], the IC50 lay in the range of 1 to 10 µM. In the case of `O=C(NCc1ccc(C(F)(F)F)cc1)[C@@]1(O)CCN(c2ccccc2)C1=O` [A333] it was over 10 µM.
